Experimental findings from patent US8710233B2 (Gruenenthal GmbH, priority 2005, dated 2014) are described below.

Where two headings read alike, the source gives them in different places.

What all share (type): cell-based
The target in assay [1] is T1, vanilloid receptor 1 (VR1/TRPV1) of the rat species (Rattus norvegicus, UniProt O35433).
T1 construct: The spinal column is removed from decapitated rats; from tissue; host or cells: primary cells dissociated from rat dorsal root ganglia
In words: FLIPR Ca2+ influx assay on rat dorsal root ganglia cells (pharmacological method I). The settings on record: for inhibition at 10 µM: read-out: inhibition in percent, Ki (rat) Cap. The text has this:
I. Functional Investigation of the Vanilloid Receptor 1 (VR1/TRPV1 Receptor)
The agonistic or antagonistic action of the substances to be investigated on the vanilloid receptor 1 (VR1/TRPV1) of the rat species may be determined by the following assay. According to this assay, the influx of Ca^2+ through the receptor channel is quantified with the assistance of a Ca^2+-sensitive dye (type Fluo-4, Molecular Probes Europe BV, Leiden, Netherlands) in a Fluorescent Imaging Plate Reader (FLIPR, Molecular Devices, Sunnyvale, USA).
The spinal column is removed from decapitated rats and is placed directly in cold, i.e. located in an ice bath, HBSS buffer (Hank's buffered saline solution, Gibco Invitrogen GmbH, Karlsruhe, Germany) combined with 1 vol. % (percent by volume) of an AA solution (antibiotic/antimycotic solution, PAA, Pasching, Austria). The spinal column is cut open longitudinally and removed together with fasciae from the spinal canal. The dorsal root ganglia (DRGs) are then removed and in turn stored in cold HBSS buffer combined with 1 vol. % of an AA solution. The DRGs, from which all traces of blood and spinal nerves have been removed, are in each case transferred into 500 μL of cold collagenase type 2 (PAA, Pasching, Austria) and incubated for 35 minutes at 37° C. […] Once incubation is complete, the enzyme solution is carefully removed by pipette and the DRGs, which are left behind, are in each case combined with 500 μL of complete medium.
The DRGs are in each case repeatedly suspended, drawn by means of a syringe through […], no. 12 and no. 16 cannulas and transferred into 50 mL Falcon microtubes and each tube is made up to 15 mL with complete medium. The contents of each Falcon microtube are in each case filtered through a 70 μm Falcon filter insert and centrifuged for 10 minutes at 1200 revolutions and room temperature. The resultant pellet is in each case resuspended in 250 μL of complete medium and the cell count determined.
The number of cells in the suspension is adjusted to 3×10^5 per mL and a 150 μL portion of this suspension is in each case placed in a well of the cell culture plate which has been coated as described above.
The cells are then loaded with 2 μM Fluo-4 and 0.01 vol. % Pluronic F127 (Molecular Probes Europe BV, Leiden, Netherlands) in HBSS buffer (Hank's buffered saline solution, Gibco Invitrogen GmbH, Karlsruhe, Germany) for 30 min at 37° C., washed 3× with HBSS buffer and, after a further 15 minutes' incubation at room temperature, used for Ca^2+ measurement in the FLIPR assay. […] Quantification proceeds by measuring the highest fluorescence intensity (FC, fluorescence counts) over time.
The FLIPR protocol comprises 2 additions of substance. The compounds to be tested (10 μM) are firstly pipetted onto the cells and Ca^2+ influx is compared with the control (capsaicin 10 μM). This provides the percentage activation relative to the Ca^2+ signal after addition of 10 μM of capsaicin (CP). After 5 minutes' incubation, 100 nM of capsaicin are added and the influx of Ca^2+ is again determined.
Desensitising agonists and antagonists result in suppression of Ca^2+ influx. The percentage inhibition in comparison with the maximum achievable inhibition with 10 μM capsaicin is calculated.
Triplicate determinations (n═3) are performed and these are repeated in at least 3 independent experiments […].

The target in the next assay is T2, vanilloid receptor (VR1) (Homo sapiens, UniProt Q8NER1).
T2 construct: expressed in transfected cells; host or cells: CHO K1 cells (ECACC), stably transfected
In words: FLIPR Ca2+ influx assay on CHO K1 cells transfected with the VR1 gene (pharmacological method II). The settings on record: for inhibition at 10 µM: CHO-K1, read-out: inhibition in percent, Ki (human) Cap.

A further assay addresses VR1/TRPV1 receptor (Homo sapiens, UniProt Q8NER1). In words: IC50 (human) after pH stimulus. As to conditions: for inhibition at 1 µM / inhibition in percent, IC50 (human) after pH stimulus: ne = no effect, @ 1 μM.
Setting [2] is: read-out: inhibition in percent, IC50 (human) after pH stimulus.
[3] abbreviates: table 4, capsaicin, read-out: Ki (rat) Cap.
Where [4] appears, read: table 4, capsaicin, read-out: Ki (human) Cap.
Setting [5] is: Table 2, displacement of capsaicin (100 nM), Cheng-Prusoff, read-out: Ki (rat).
The mark [6] stands for this setting: Table 2, displacement of capsaicin (100 nM), Cheng-Prusoff, read-out: Ki (human).

T2 sequence (Q8NER1 whole entry): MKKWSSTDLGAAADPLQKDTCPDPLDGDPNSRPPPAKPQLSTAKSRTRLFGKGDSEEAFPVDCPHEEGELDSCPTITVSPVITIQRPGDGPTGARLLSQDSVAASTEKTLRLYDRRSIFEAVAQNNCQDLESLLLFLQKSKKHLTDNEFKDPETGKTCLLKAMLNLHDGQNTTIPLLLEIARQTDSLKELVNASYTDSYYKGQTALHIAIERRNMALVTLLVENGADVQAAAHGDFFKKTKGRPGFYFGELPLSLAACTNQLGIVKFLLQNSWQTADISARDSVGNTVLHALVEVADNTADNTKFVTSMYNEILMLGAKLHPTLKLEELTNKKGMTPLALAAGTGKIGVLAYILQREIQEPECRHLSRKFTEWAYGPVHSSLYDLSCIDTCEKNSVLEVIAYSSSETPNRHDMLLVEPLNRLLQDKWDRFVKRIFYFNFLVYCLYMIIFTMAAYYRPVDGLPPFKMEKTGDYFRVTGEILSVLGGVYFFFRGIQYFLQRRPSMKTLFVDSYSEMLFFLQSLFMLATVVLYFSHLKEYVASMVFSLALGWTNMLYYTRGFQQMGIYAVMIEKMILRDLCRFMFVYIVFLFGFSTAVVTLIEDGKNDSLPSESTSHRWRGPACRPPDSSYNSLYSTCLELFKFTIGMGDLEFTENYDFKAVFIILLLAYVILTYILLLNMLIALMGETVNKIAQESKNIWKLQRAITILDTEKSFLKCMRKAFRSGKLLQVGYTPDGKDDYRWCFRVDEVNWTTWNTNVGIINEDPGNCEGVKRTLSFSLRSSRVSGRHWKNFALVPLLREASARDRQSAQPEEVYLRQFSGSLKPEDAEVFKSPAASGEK
Chain of VR1/TRPV1 receptor (Q8NER1 whole entry): as above
T1 sequence (O35433 whole entry): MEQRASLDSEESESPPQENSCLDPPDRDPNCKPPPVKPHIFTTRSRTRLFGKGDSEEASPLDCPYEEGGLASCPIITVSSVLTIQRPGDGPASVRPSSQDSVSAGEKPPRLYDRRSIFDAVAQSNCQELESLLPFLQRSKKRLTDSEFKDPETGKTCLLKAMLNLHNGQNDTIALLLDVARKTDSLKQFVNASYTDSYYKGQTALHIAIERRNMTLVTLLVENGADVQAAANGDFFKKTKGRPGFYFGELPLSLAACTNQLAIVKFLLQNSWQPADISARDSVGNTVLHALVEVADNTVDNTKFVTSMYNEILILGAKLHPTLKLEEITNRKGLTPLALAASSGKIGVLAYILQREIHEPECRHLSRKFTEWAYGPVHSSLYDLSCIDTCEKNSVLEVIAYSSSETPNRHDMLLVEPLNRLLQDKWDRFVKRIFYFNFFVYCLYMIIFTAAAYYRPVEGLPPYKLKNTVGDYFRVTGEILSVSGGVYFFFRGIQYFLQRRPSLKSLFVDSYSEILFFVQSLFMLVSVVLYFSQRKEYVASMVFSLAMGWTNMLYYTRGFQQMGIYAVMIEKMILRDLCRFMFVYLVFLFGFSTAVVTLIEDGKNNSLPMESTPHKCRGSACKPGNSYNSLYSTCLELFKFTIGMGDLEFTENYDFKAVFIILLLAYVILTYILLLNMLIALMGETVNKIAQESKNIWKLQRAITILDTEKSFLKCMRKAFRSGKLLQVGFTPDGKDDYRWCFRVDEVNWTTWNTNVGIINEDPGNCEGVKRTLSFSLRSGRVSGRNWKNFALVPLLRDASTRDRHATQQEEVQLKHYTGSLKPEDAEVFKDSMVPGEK

The inhibition is the drop in the measured response relative to a control, in per cent. Regarding `CC(C(=O)NCc1ccc(C(F)(F)F)nc1N1CCC(N2CCCCC2)CC1)c1ccc(NS(C)(=O)=O)c(F)c1` (stereo not drawn) [Example 164, 2-(3-fluoro-4-methylsulfonamido-phenyl)-N-(6″-trifluoromethyl-3,4,5,6,3′,4′,5′,6′-octahydro-2H,2′H-[1,4′;1′,2″]terpyridin-3″-ylmethyl)-propionamide], the inhibition at 10 µM was determined as 85% in assay [1] (@ 10 μM), 84% at vanilloid receptor (VR1) (@ 10 μM) and 30% at VR1/TRPV1 receptor (setting [2]). The inhibition at 25 µM on VR1/TRPV1 receptor (@ 25 μM, read-out: inhibition in percent, IC50 (human) after pH stimulus) came out at 28%.
As usually defined, the Ki is a measure of affinity in units of concentration, obtained from inhibition or displacement. By IC50 is commonly meant the concentration that inhibits the measured activity by half. Lower therefore signals greater potency. As to `CCN(CC)c1nc(C(F)(F)F)ccc1CNC(=O)C(C)c1ccc(NS(C)(=O)=O)c(F)c1` (stereo not drawn) [Example 15, N-((2-(diethylamino)-6-(trifluoromethyl)pyridin-3-yl)methyl)-2-(3-fluoro-4-(methylsulfonamido)phenyl)propanamide], the Ki turned out to be 12 nM in assay [1] (setting [3]) and 3.5 nM at vanilloid receptor (VR1) (setting [4]). For the same molecule, the IC50 against VR1/TRPV1 receptor (table 4) came to 148 nM.
For the molecule `CC(C(=O)NCc1ccc(C(F)(F)F)nc1CCC(C)(C)C)c1ccc(NS(C)(=O)=O)c(F)c1` (stereo not drawn) [Example 263, N-[2-(3,3-dimethyl-butyl)-6-trifluoromethyl-pyridin-3-ylmethyl]-2-(3-fluoro-4-methylsulfonamido-phenyl)-propionamide], the inhibitory constant (Ki) in assay [1] (setting [3]) is 0.7 nM; on vanilloid receptor (VR1) (setting [4]), 0.6 nM. The inhibition at 1 µM on VR1/TRPV1 receptor (setting [2]) amounted to 63%.
Take `CC(C(=O)NCc1ccc(C(F)(F)F)nc1N1CCN(c2ccncc2)CC1)c1ccc(NS(C)(=O)=O)c(F)c1` (stereo not drawn) [Example 176, 2-(3-fluoro-4-methylsulfonamido-phenyl)-N-[2-(4-pyridin-4-yl-piperazin-1-yl)-6-trifluoromethyl-pyridin-3-ylmethyl]-propionamide]: the figures for the inhibition at 10 µM (in assay [1] (@ 10 μM); on vanilloid receptor (VR1) (@ 10 μM); at VR1/TRPV1 receptor (setting [2])) were 60%, 63% and 43%, respectively. Besides, the inhibition at 1 µM on VR1/TRPV1 receptor (setting [2]) came out at 13%.
Turning to `CC(C(=O)NCc1ccc(C(F)(F)F)nc1N1CCCCCCC1)c1ccc(NS(C)(=O)=O)c(F)c1` (stereo not drawn) [Example 128, N-(2-azocan-1-yl-6-trifluoromethyl-pyridin-3-ylmethyl)-2-(3-fluoro-4-methylsulfonamido-phenyl)-propionamide], the Ki in assay [1] (setting [3]) stood at 1 nM; on vanilloid receptor (VR1) (setting [4]) it was 0.7 nM. This molecule yielded an IC50 against VR1/TRPV1 receptor (table 4) of 27.8 nM.
`CC(C(=O)NCc1ccc(C(F)(F)F)cc1N1CCOCC1)c1ccc(NS(C)(=O)=O)c(F)c1` (stereo not drawn) [Example 33, 2-(3-fluoro-4-(methylsulfonamido)phenyl)-N-(2-morpholino-4-(trifluoromethyl)benzyl)propanamide]: the Ki in assay [1] (setting [5]) worked out at 4.8 nM; on vanilloid receptor (VR1) (setting [6]), 7.2 nM. The same molecule displayed an IC50 against VR1/TRPV1 receptor (Table 2) of 1380 nM.
As for `CC(C(=O)NCc1ccc(C(F)(F)F)cc1F)c1ccc(NS(C)(=O)=O)c(F)c1` (stereo not drawn) [Example 114, 2-(3-fluoro-4-methylsulfonamido-phenyl)-N-(2-fluoro-4-trifluoromethyl-benzyl)-propionamide], the Ki is 28.1 nM in assay [1] (setting [3]) and 68.7 nM on vanilloid receptor (VR1) (setting [4]). For the same molecule, the IC50 at VR1/TRPV1 receptor (table 4) is 2360 nM.
Regarding `CC(C(=O)NCc1ccc(C(F)(F)F)nc1N1CCN(Cc2ccccc2)CC1)c1ccc(NS(C)(=O)=O)c(F)c1` (stereo not drawn) [Example 73, N-((2-(4-benzylpiperazin-1-yl)-6-(trifluoromethyl)pyridin-3-yl)methyl)-2-(3-fluoro-4-(methylsulfonamido)phenyl)propanamide], the Ki in assay [1] (setting [5]) worked out at 6.6 nM; at vanilloid receptor (VR1) (setting [6]), 8.8 nM. On VR1/TRPV1 receptor (Table 2), the IC50 came to 634 nM.
As for `CCCCCCOc1nc(C(F)(F)F)ccc1CNC(=O)C(C)c1ccc(NS(C)(=O)=O)c(C)c1` (stereo not drawn) [Example 257, N-(2-hexyloxy-6-trifluoromethyl-pyridin-3-ylmethyl)-2-(4-methylsulfonamido-3-methyl-phenyl)-propionamide], the inhibitory constant (Ki) in assay [1] (setting [3]) came to 0.3 nM; at vanilloid receptor (VR1) (setting [4]) it was 0.6 nM. The inhibition at 1 µM at VR1/TRPV1 receptor (setting [2]) came out at 67%.
Take `COc1ccc(-c2nc(C(F)(F)F)ccc2CNC(=O)C(C)c2ccc(NS(C)(=O)=O)c(F)c2)cc1F` (stereo not drawn) [Example 254, 2-(3-fluoro-4-methylsulfonamido-phenyl)-N-[2-(3-fluoro-4-methoxy-phenyl)-6-trifluoromethyl-pyridin-3-ylmethyl]-propionamide]: the Ki in assay [1] (setting [3]) was 1.3 nM; at vanilloid receptor (VR1) (setting [4]), 4.2 nM. The inhibition at 0.1 µM on VR1/TRPV1 receptor (@ 0.1 μM, read-out: inhibition in percent, IC50 (human) after pH stimulus) was 19%. Also, the inhibition at 1 µM at VR1/TRPV1 receptor (setting [2]) worked out at 63%.
Turning to `CC(C(=O)NCc1ccc(C(F)(F)F)nc1OCc1ccc(C(F)(F)F)cc1)c1ccc(NS(C)(=O)=O)c(F)c1` (stereo not drawn) [Example 206, 2-(3-fluoro-4-methylsulfonamido-phenyl)-N-[6-trifluoromethyl-2-(4-trifluoromethyl-benzyloxy)-pyridin-3-ylmethyl]-propionamide], the Ki stood at 0.7 nM in assay [1] (Ki (rat) Cap., table 4, capsaicin) and 3.2 nM on vanilloid receptor (VR1) (setting [4]). In addition, the IC50 on VR1/TRPV1 receptor (table 4) turned out to be 66.1 nM.
For `CC(C(=O)NCc1ccc(C(F)(F)F)nc1N(C)c1ccccc1)c1ccc(NS(C)(=O)=O)c(F)c1` (stereo not drawn) [Example 205, 2-(3-fluoro-4-methylsulfonamido-phenyl)-N-[2-(methyl-phenyl-amino)-6-trifluoromethyl-pyridin-3-ylmethyl]-propionamide], the Ki was 11.4 nM in assay [1] (setting [3]) and 0.9 nM on vanilloid receptor (VR1) (setting [4]). At VR1/TRPV1 receptor (table 4), the IC50 was 57.4 nM.
Turning to `CC1CCN(c2nc(C(F)(F)F)ccc2CCNC(=O)C(C)c2ccc(NS(C)(=O)=O)c(F)c2)CC1` (stereo not drawn) [Example 284, 2-(3-fluoro-4-methylsulfonamido-phenyl)-N-[2-(4-methyl-6′-trifluoromethyl-3,4,5,6-tetrahydro-2H-[1,2′]bipyridinyl-3′-yl)-ethyl]-propionamide], the Ki in assay [1] (setting [3]) turned out to be 48 nM; at vanilloid receptor (VR1) (setting [4]), 54.9 nM. For the same molecule, on VR1/TRPV1 receptor, the “inhibition in percent, IC50 (human) after pH stimulus” value is reported as “ne @ 1 μM”.
Regarding `CCCCCCc1nc(C(F)(F)F)ccc1CNC(=O)C(C)c1ccc(NS(C)(=O)=O)c(F)c1` (stereo not drawn) [Example 267, 2-(3-fluoro-4-methylsulfonamido-phenyl)-N-(2-hexyl-6-trifluoromethyl-pyridin-3-ylmethyl)-propionamide], the Ki was found to be 1.7 nM in assay [1] (setting [3]) and 1.6 nM on vanilloid receptor (VR1) (setting [4]). Moreover, half-maximal inhibition on VR1/TRPV1 receptor (table 4) (IC50) required 24 nM.
As to `CC(C(=O)NCc1ccc(C(C)(C)C)cc1C#N)c1ccc(NS(C)(=O)=O)c(F)c1` (stereo not drawn) [Example 70, N-(4-tert-butyl-2-cyanobenzyl)-2-(3-fluoro-4-(methylsulfonamido)-phenyl)propanamide], the Ki was determined as 9 nM in assay [1] (setting [5]) and 15.5 nM at vanilloid receptor (VR1) (setting [6]). Moreover, the IC50 on VR1/TRPV1 receptor (Table 2) was 1490 nM.
Turning to `CC(C(=O)NCc1ccc(C(C)(C)C)nc1OCc1ccccc1)c1ccc(NS(C)(=O)=O)c(F)c1` (stereo not drawn) [Example 237, N-(2-benzyloxy-6-tert-butyl-pyridin-3-ylmethyl)-2-(3-fluoro-4-methylsulfonamido-phenyl)-propionamide], the Ki in assay [1] (setting [3]) came to 2 nM; on vanilloid receptor (VR1) (setting [4]) it was 4.4 nM. Moreover, at VR1/TRPV1 receptor (setting [2]), the inhibition at 1 µM was 70%.
`CC(C(=O)NCc1ncc(C(F)(F)F)cc1Cl)c1ccc(NS(C)(=O)=O)c(F)c1` (stereo not drawn) [Example 77]: the “inhibition in percent, Ki (rat) Cap.” value in assay [1] (@ 10 μM) is on record as 57% @ 10 μM. Also, the “inhibition in percent, Ki (human) Cap.” value against vanilloid receptor (VR1) (@ 10 μM) was found to be 21% @ 10 μM. The “inhibition in percent, IC50 (human) after pH stimulus” value on VR1/TRPV1 receptor is “ne @ 1 μM”.
